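Results reflect a 48-hour exposure of cells in 96-well plates to compound at five concentrations. GI50: concentration for 50% inhibition of growth. Definition used: TGI = concentration required for complete inhibition of growth.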
How the values were obtained:
Test in all cases: inhibition of tumour cell growth, NCI panel, 48 h
MDA-MB-435 = system: MDA-MB-435
HCT-15 colon = system: HCT-15 colon
K-562 leukemia = system: K-562 leukemia
OVCAR-5 ovarian = system: OVCAR-5 ovarian
HS 578T breast = system: HS 578T breast
DU-145 prostate = system: DU-145 prostate
CCRF-CEM leukemia = system: CCRF-CEM leukemia
NCI-H460 lung = system: NCI-H460 lung
OVCAR-4 ovarian = system: OVCAR-4 ovarian
MCF7 breast = system: MCF7 breast
HCC-2998 colon = system: HCC-2998 colon
LOX IMVI melanoma = system: LOX IMVI melanoma
SR leukemia = system: SR leukemia
T-47D breast = system: T-47D breast
HCT-116 colon = system: HCT-116 colon
NCI-H522 lung = system: NCI-H522 lung
HL-60(TB) leukemia = system: HL-60(TB) leukemia
SF-539 CNS = system: SF-539 CNS
NCI/ADR-RES ovarian = system: NCI/ADR-RES ovarian
NCI-H23 lung = system: NCI-H23 lung
A498 renal = system: A498 renal
KM12 colon = system: KM12 colon
SNB-75 CNS = system: SNB-75 CNS
NCI-H226 lung = system: NCI-H226 lung
786-0 renal = system: 786-0 renal
SK-MEL-28 melanoma = system: SK-MEL-28 melanoma
MOLT-4 leukemia = system: MOLT-4 leukemia
UO-31 renal = system: UO-31 renal
OVCAR-3 ovarian = system: OVCAR-3 ovarian

## Cn1c(=O)c(Oc2ccc(F)cc2F)cc2cnc(NC(C)(C)CO)nc21
MDA-MB-435
  GI50: > 25 µM
  TGI: > 25 µM
HCT-15 colon
  GI50: > 25 µM
  TGI: > 25 µM
K-562 leukemia
  GI50: > 25 µM
  TGI: > 25 µM
OVCAR-5 ovarian
  GI50: > 25 µM
  TGI: > 25 µM
HS 578T breast
  GI50: > 25 µM
  TGI: > 25 µM
DU-145 prostate
  GI50: > 25 µM
  TGI: > 25 µM
CCRF-CEM leukemia
  GI50: > 25 µM
  TGI: > 25 µM
NCI-H460 lung
  GI50: > 25 µM
  TGI: > 25 µM
OVCAR-4 ovarian
  GI50: > 25 µM
  TGI: > 25 µM
MCF7 breast
  GI50: > 25 µM
  TGI: > 25 µM
HCC-2998 colon
  GI50: > 25 µM
  TGI: > 25 µM
LOX IMVI melanoma
  GI50: > 25 µM
  TGI: > 25 µM
SR leukemia
  GI50: > 25 µM
  TGI: > 25 µM
T-47D breast
  GI50: 13.7 µM
  TGI: > 25 µM
HCT-116 colon
  GI50: > 25 µM
  TGI: > 25 µM
NCI-H522 lung
  GI50: > 25 µM
  TGI: > 25 µM
HL-60(TB) leukemia
  GI50: > 25 µM
  TGI: > 25 µM
SF-539 CNS
  GI50: > 25 µM
  TGI: > 25 µM
NCI/ADR-RES ovarian
  GI50: > 25 µM
  TGI: > 25 µM
NCI-H23 lung
  GI50: > 25 µM
  TGI: > 25 µM
A498 renal
  GI50: > 15.9 µM
  TGI: > 25 µM
KM12 colon
  GI50: > 25 µM
  TGI: > 25 µM
SNB-75 CNS
  GI50: > 25 µM
  TGI: > 25 µM
NCI-H226 lung
  GI50: > 25 µM
  TGI: > 25 µM
786-0 renal
  GI50: > 25 µM
  TGI: > 25 µM
SK-MEL-28 melanoma
  GI50: > 25 µM
  TGI: > 25 µM
MOLT-4 leukemia
  GI50: > 25 µM
  TGI: > 25 µM
UO-31 renal
  GI50: 6.65 µM
  TGI: > 13.4 µM
OVCAR-3 ovarian
  GI50: > 25 µM
